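Assay format: 96-well plates, 48-hour exposure. Here, GI50 denotes the concentration required for 50% inhibition of growth.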 Active and inactive are the calls of the source. No stated cut-off is given here; in the data, active = GI50 up to about 1.1 µM and inactive = higher.
What was measured:
Assay in all cases: growth of human tumour cells (NCI), 48 h
[1] = test system: HOP-62
[2] = test system: UO-31
[3] = test system: EKVX
[4] = test system: M14
[5] = test system: T47D
[6] = test system: UACC-62
[7] = test system: HT-29
[8] = test system: RXF 393
[9] = test system: SF-539
[10] = test system: Malme-3M
[11] = test system: NCI-H522
[12] = test system: SW-620
[13] = test system: OVCAR-8
[14] = test system: BT-549
[15] = test system: MDA-MB-231
[16] = test system: HCC 2998
[17] = test system: OVCAR-5
[18] = test system: CCRF-CEM
[19] = test system: MDA-N
[20] = test system: HCT-15
[21] = test system: A498
[22] = test system: NCI-H460
[23] = test system: HCT-116
[24] = test system: DU-145
[25] = test system: ACHN
[26] = test system: U-251
[27] = test system: NCI-H23
[28] = test system: UACC-257
[29] = test system: LOX IMVI
[30] = test system: MOLT-4
[31] = test system: SK-MEL-5
[32] = test system: Hs-578T
[33] = test system: A549
[34] = test system: MDA-MB-435
[35] = test system: RPMI-8226
[36] = test system: SNB-19
[37] = test system: NCI/ADR-RES
[38] = test system: NCI-H226
[39] = test system: PC-3
[40] = test system: 786-0
[41] = test system: SF-268
[42] = test system: OVCAR-4
[43] = test system: MCF7
[44] = test system: COLO 205
[45] = test system: SNB-75
[46] = test system: TK-10
[47] = test system: SK-OV-3
[48] = test system: IGROV-1
[49] = test system: OVCAR-3
[50] = test system: SK-MEL-28
[51] = test system: HOP-92
[52] = test system: SK-MEL-2
[53] = test system: SN12C
[54] = test system: CAKI-1
[55] = test system: K562
[56] = test system: KM12
[57] = test system: SF-295

C[C@]12CC[C@H]3[C@@H](CC=C4C[C@@H](O)CC[C@@]43C)[C@@H]1CC[C@@H]2N(CCO)CCO
GI50 [1]: 51.3 µM (inactive) | GI50 [2]: 51.8 µM (inactive) | GI50 [3]: 19.4 µM (inactive) | GI50 [4]: 48.4 µM (inactive) | GI50 [5]: 86.3 µM (inactive) | GI50 [6]: 35.3 µM (inactive) | GI50 [7]: 29 µM (inactive) | GI50 [8]: 36.1 µM (inactive) | GI50 [9]: 54.7 µM (inactive) | GI50 [10]: 31 µM (inactive) | GI50 [11]: 20.4 µM (inactive) | GI50 [12]: 41.3 µM (inactive) | GI50 [13]: 88.5 µM (inactive) | GI50 [14]: > 100 µM (inactive) | GI50 [15]: > 100 µM (inactive) | GI50 [16]: 27 µM (inactive) | GI50 [17]: 55.1 µM (inactive) | GI50 [18]: 46.2 µM (inactive) | GI50 [19]: 45.9 µM (inactive) | GI50 [20]: 71.4 µM | GI50 [21]: 16.1 µM (inactive) | GI50 [22]: 33.2 µM (inactive) | GI50 [23]: 26.9 µM (inactive) | GI50 [24]: 36.6 µM (inactive) | GI50 [25]: 30.7 µM (inactive) | GI50 [26]: 59.8 µM (inactive) | GI50 [27]: > 100 µM (inactive) | GI50 [28]: 52.6 µM (inactive) | GI50 [29]: 40.7 µM (inactive) | GI50 [30]: > 100 µM (inactive) | GI50 [31]: 63.5 µM (inactive) | GI50 [32]: 45.2 µM (inactive) | GI50 [33]: 42 µM (inactive) | GI50 [34]: 85.9 µM (inactive) | GI50 [35]: > 100 µM (inactive) | GI50 [36]: 68.1 µM (inactive) | GI50 [37]: > 100 µM (inactive) | GI50 [38]: > 100 µM (inactive) | GI50 [39]: 50.9 µM (inactive) | GI50 [40]: 19.7 µM (inactive) | GI50 [41]: 36 µM (inactive) | GI50 [42]: > 100 µM (inactive) | GI50 [43]: 33.2 µM (inactive) | GI50 [44]: 44.3 µM (inactive) | GI50 [45]: 72.8 µM (inactive) | GI50 [46]: 42.3 µM (inactive) | GI50 [47]: 23.3 µM (inactive) | GI50 [48]: 50.7 µM (inactive) | GI50 [49]: 34.8 µM (inactive) | GI50 [50]: 96.2 µM (inactive) | GI50 [51]: 64 µM (inactive) | GI50 [52]: 76.2 µM (inactive) | GI50 [53]: 33 µM (inactive) | GI50 [54]: 45.3 µM (inactive) | GI50 [55]: 71.9 µM (inactive) | GI50 [56]: 54.5 µM (inactive) | GI50 [57]: 57.5 µM (inactive)
